In patent US9302991B2, “Arylamide derivatives as TTX-S blockers” (RaQualia Pharma Inc., priority 2010, dated 2016):

Experiments:
[1] = system: CFA-induced thermal hyperalgesia in rats; assay: Complete Freund's Adjuvant (CFA)-induced thermal hyperalgesia in rats; type: in vivo, Sprague-Dawley rats; settings: 30 mg/kg per os
Method: Complete Freund's Adjuvant (CFA)-Induced Thermal Hyperalgesia in Rats
Male Sprague-Dawley rats at 6 weeks old are purchased from Charles River Japan Inc., and housed in groups of two per cage under a 12-h light/dark cycle (lights on at 07:00) with access to food and water ad libitum. CFA-induced thermal hyperalgesia is assessed using the plantar test apparatus (Ugo Basile) as described by Hargreaves K et al. (Pain 1988, 32: 77-88). The animals are placed in an apparatus consisting of individual testing box on an elevated glass table and allowed to acclimate for at least 10 minutes. Following the habituation, a mobile radiant heat source is located under the table and heat stimulation is applied to the plantar surface of the right hind paw. The latency to remove its hind paw is defined as paw withdrawal latency (PWL) in sec. The cut-off point is set at 30 seconds to prevent tissue damage. CFA is prepared at a concentration of 2-3 mg/mL of Mycobacterium tuberculosis H37 RA in liquid paraffin. After disinfections with 70% ethanol, the rats are injected intraplantarly with 100 microL of CFA (200-300 microgram) into the right hind paw. Two days after CFA injection, PWL is measured in the same manner as mentioned above. […] The PWL is measured at the appropriated time after compound administration. […]

[2] = system: Paw incision-induced static allodynia in rats; assay: Paw incision-induced static allodynia in rats; type: in vivo, Sprague-Dawley rats; settings: 30 mg/kg per os
Method: Paw Incision-Induced Static Allodynia in Rats
Male Sprague-Dawley rats at 7 weeks old are purchased from Charles River Japan Inc., and housed in groups of two per cage under a 12-h light/dark cycle (lights on at 07:00) with access to food and water ad libitum. Paw incision-induced static allodynia is assessed by VFH test. Surgery is performed according to the procedure described by Brennan et al. (Pain 1996, 64: 493-501). The animals are initially anesthetized with 3-4% isoflurane/O2 mixture in an anesthetic chamber and maintained with 2-3% delivered through a nose cone. The plantar surface of the right hind paw is sterilized with 7.5% povidone-iodine solution. A 1-cm longitudinal incision is made with a number 11 blade, through skin and fascia of the plantar aspect of the paw, starting 0.5 cm from the proximal edge of the heel and extending toward the toes. The plantaris muscle is elevated using forceps and retracted. The muscle origin and insertion remain intact. After hemostasis with gentle pressure, the skin is apposed with 2 sutures of 5-0 nylon. The wound site is covered with Terramycin ointment, and the rats are allowed to recover in their cages with soft bedding. The animals are individually placed in a Plexiglas test chamber on an elevated grid to acclimate for 1 hour before the day of surgery. […] The PWT is measured at the appropriated time after compound administration.

## CC(=O)Nc1cc(C(=O)NC(C)c2ccc(OCC(F)(F)F)nc2)ccn1 (single isomer, unassigned; (-)) [Example 1, (−)-2-acetamido-N-(1-(6-(2,2,2-trifluoroethoxy)pyridin-3-yl)ethyl)isonicotinamide]
[1]
  activity in CFA-induced thermal hyperalgesia (PWL): significant activity
[2]
  activity in paw incision-induced static allodynia (PWT): significant activity
